Experimental data taken from patent publication US8586552B2, “4,6-substituted 2,5-dideoxystreptamine aminoglycoside antibiotics” (SelectX Pharmaceuticals, Inc., priority 2012, dated 2013).
In brackets after ≈: the same amount, converted by molar mass.

Experiments:
[1] = test system: Pseudomonas aeruginosa PR2 (clinical isolate with intermediate aminoglycoside resistance); experiment: MIC against Pseudomonas aeruginosa clinical isolate PR2; assay type: cell-based; conditions: Pseudomonas aeruginosa resistant strain PR2
Description: (§1) Pseudomonas aeruginosa is a prominent nosocomial pathogen. In addition to intrinsic antibiotic resistance to several antibiotics, Pseudomonas has acquired multiple additional mechanisms of resistance. As a result, therapeutic options for the treatment of infections caused by Pseudomonas aeruginosa are limited. We acquired clinical isolates of Pseudomonas aeruginosa (Micromyx LLC, Kalamazoo, Mich.), and used this panel to test compounds for Pseudomonicidal activity. […] For each strain and antibiotic, the mechanism(s) of resistance was inferred from the resistance profile. The presence of specific AGMEs was confirmed by colony PCR.

[2] = test system: more than fifty resistant contemporary clinical isolates of Pseudomonas aeruginosa; experiment: MIC90 against panel of resistant clinical isolates of Pseudomonas aeruginosa; assay type: cell-based; conditions: Pseudomonas aeruginosa
Description: To assess this, a panel of more than fifty resistant contemporary clinical isolates of Pseudomonas aeruginosa were obtained from multiple sources including JMI Laboratories (North Liberty, Iowa), Pfizer (Groton, Conn.), Micromyx (Kalamazoo, Mich.), Dr. J. Chow (Wayne State University). Strains were characterized for resistance to a wide variety of classes of antibiotics including aminoglycosides, β-lactams and fluoroquinolones. […] This reflects the difficulty in treating clinical Pseudomonas aeruginosa infections. […] Using this stringent panel, we tested a subset of compounds of the invention (Table 4).

[3] = test system: Pseudomonas aeruginosa PR3 (high-level, efflux-mediated, pan-aminoglycoside resistance); experiment: MIC against Pseudomonas aeruginosa clinical isolate PR3; assay type: cell-based; conditions: for MIC: Pseudomonas aeruginosa, read-out: MIC PR3; for MIC PR3: Pseudomonas aeruginosa resistant strain PR3
Description: as §1

[4] = test system: fifty resistant contemporary clinical isolates of Klebsiella pneumoniae; experiment: MIC90 against panel of resistant clinical isolates of Klebsiella pneumoniae; assay type: cell-based; conditions: Klebsiella pneumoniae; fifty resistant contemporary clinical isolates, reference antibiotics
Description: Using this stringent Klebsiella pneumoniae panel, we tested a subset of compounds of the invention.

[5] = test system: Klebsiella pneumoniae screening panel KPWT, KR1, KR2, KR3; experiment: Klebsiella pneumoniae screening panel (KPWT, KR1, KR2, KR3), reference AGs; assay type: cell-based
Description: (§2) Klebsiella pneumoniae (Kpn) and Escherichia coli (Eco) are gram-negative (like Pae), enteric pathogens with increasing clinical relevance. Many clinical isolates of Kpn and Eco harbor extended-spectrum beta-lactamases and are no longer sensitive to most beta-lactam antibiotics. We acquired clinical isolates of Klebsiella pneumoniae and Escherichia coli (Micromyx LLC, Kalamazoo, Mich.) and used this panel to test compounds for anti-enteric activity.

[6] = test system: Escherichia coli (Eco, ECWT, ATCC #25922); experiment: MIC against Escherichia coli reference strain ECWT; assay type: cell-based; conditions: for MIC: ATCC25922
Description: (§3) For evaluation of efficacy, we assembled panels of representative gram-negative pathogens, including Pseudomonas aeruginosa (Pae, PAWT, ATCC #27853), Klebsiella pneumoniae (Kpn, KPWT, ATCC #700603), Acinetobacter baumannii (Aba, ABWT, ATCC #BAA-747) and Escherichia coli (Eco, ECWT, ATCC #25922). These reference strains are useful indicator organisms to characterize compound activity against bacteria from a pathogenic genus in the absence of multiple resistance mechanisms. Two strains (PAWT and ECWT) are reference strains cited within the Clinical and Laboratory Standards Institute (CLSI) Standards for susceptibility testing by Minimum Inhibitory Concentration (MIC) (SXPS2) and are well suited for quality control. ABWT and ECWT are widely susceptible to aminoglycoside antibiotics, whereas PAWT and KPWT harbor a single aminoglycoside-modifying enzyme (AGME) that targets 4,6-substituted-2-deoxystreptamine AGs.

[7] = test system: Acinetobacter baumannii (Aba, ABWT, ATCC #BAA-747); experiment: MIC against Acinetobacter baumannii reference strain ABWT; assay type: cell-based; conditions: for MIC: ATCCBAA747
Description: as §3, with “AGs. […]” for “AGs.”

[8] = test system: Klebsiella pneumoniae (Kpn, KPWT, ATCC #700603); experiment: MIC against Klebsiella pneumoniae reference strain KPWT; assay type: cell-based; conditions: for MIC: ATCC700603
Description: as §3, with “These reference strains are useful indicator organisms to characterize compound activity against bacteria from a pathogenic genus in the absence of multiple resistance mechanisms.” left out, “AGs. […]” for “AGs.”

[9] = test system: resistant strain of P. aeruginosa (P. aeruginosa 6294 MLP-3); experiment: Rat neutropenic thigh model against resistant P. aeruginosa; assay type: in vivo; conditions: resistant P. aeruginosa
Description: The compound identified as SXP 2523 was further tested in vivo against a resistant strain of P. aeruginosa. Twenty male Sprague Dawley rats were rendered neutropenic by treatment with cyclophosphamide on day −4 and day −1 with 100 mg/kg and 75 mg/kg, respectively. Rats were infected with P. aeruginosa 6294 MLP-3, via injection into the right thigh muscle of 0.1 mL per rat. Two hours post infection rats were treated intravenously with either SXP-2523 or amikacin in a total dose of 10 or 60 mg/kg, respectively. The test article and control agent were delivered at 2, 4, and 6 hours post infection. Five rats were treated with each drug concentration. One group of five rats were euthanized at initiation of treatment and thigh CFUs were determined (T=Rx). Twenty-four hours post infection; rats were euthanized by CO2 inhalation. The right thigh muscles of the rats were aseptically removed, weighed, homogenized, serially diluted, and plated on BHI medium. The plates were incubated overnight at 37° C. in 5% CO2. CFU per gram of thigh was calculated by enumerating the plated colonies then adjusting for serial dilutions and the weight of the thigh.

[10] = test system: Pseudomonas aeruginosa PR1 (clinical isolate with intermediate aminoglycoside resistance); experiment: MIC against Pseudomonas aeruginosa clinical isolate PR1; assay type: cell-based; conditions: Pseudomonas aeruginosa resistant strain PR1
Description: as §1

[11] = test system: Pseudomonas aeruginosa (Pae, PAWT, ATCC #27853); experiment: MIC against Pseudomonas aeruginosa reference strain PAWT; assay type: cell-based; conditions: Pseudomonas aeruginosa wild type PAWT; for MIC: ATCC27853
Description: as §3, with “AGs. […]” for “AGs.”

P. aeruginosa 6294 MLP-3 = experiment: Rat neutropenic thigh model; assay type: in vivo
Description: The compound identified as SXP 2523 was selected for further testing in vivo. Twenty male Sprague Dawley rats were pre-treated with cyclophosphamide to render them neutropenic on day −4 and day −1 with 100 mg/kg and 75 mg/kg respectively. Rats were infected with P. aeruginosa 6294 MLP-3, via injection into the right thigh muscle of 0.1 mL per rat. Two hours post infection rats were treated intravenously with either SXP-2523 or amikacin in a total dose of 10 or 60 mg/kg, respectively. The test article and control agent were delivered at 2, 4, and 6 hours post infection. Five rats were treated with each drug concentration. One group of five rats was euthanized at initiation of treatment and thigh CFUs were processed (T=Rx). Twenty-four hours post infection rats were euthanized by CO2 inhalation. The right thigh muscles of the rats were aseptically removed, weighed, homogenized, serially diluted, and plated on MacConkey medium. The plates were incubated overnight at 37° C. in 5% CO2. CFU per gram of thigh was calculated by enumerating the plated colonies then adjusting for serial dilutions and the weight of the thigh. The following table 7 summarizes the results Table 6: […]

[12] = test system: Klebsiella pneumoniae KR1 (clinical isolate with intermediate aminoglycoside resistance); experiment: MIC against Klebsiella pneumoniae clinical isolate KR1; assay type: cell-based; conditions: Klebsiella pneumonia KR1; in µg/mL
Description: as §2

[13] = test system: Klebsiella pneumoniae KR3 (clinical isolate possessing high-level aminoglycoside resistance); experiment: MIC against Klebsiella pneumoniae clinical isolate KR3; assay type: cell-based; conditions: Klebsiella pneumonia KR3; in µg/mL
Description: as §2

[14] = test system: Klebsiella pneumoniae KR2 (clinical isolate with intermediate aminoglycoside resistance); experiment: MIC against Klebsiella pneumoniae clinical isolate KR2; assay type: cell-based; conditions: Klebsiella pneumonia KR2
Description: as §2

[15] = Klebsiella pneumoniae KPWT, Table 2
[16] = Log CFU/thigh, total dose 10 mg/kg SXP-2523 or 60 mg/kg amikacin iv
[17] = neutropenic male Sprague Dawley rats, iv at 2, 4, 6 h post infection, total dose 10 mg/kg SXP-2523 or 60 mg/kg amikacin, 24 h post infection

| SMILES | MIC [1] [µg/mL] | MIC [3] [µg/mL] | potency against Klebsiella pneumoniae test panel [5] | MIC [6] [µg/mL] | MIC [7] [µg/mL] | MIC [8, 15] [µg/mL] | MIC [10] [µg/mL] | MIC [11] [µg/mL] | MIC PR2 [1] [µg/mL] | MIC PR3 [3] [µg/mL] | MIC PR1 [10] [µg/mL] | MIC PAWT [11] [µg/mL] | further results |
| --- | --- | --- | --- | --- | --- | --- | --- | --- | --- | --- | --- | --- | --- |
| NCC[C@H](O)C(=O)N[C@@H]1C[C@H](N)[C@@H](O[C@H]2O[C@H](CN)[C@@H](O)[C@H](O)[C@H]2O)[C@H](O)[C@H]1O[C@H]1O[C@H](CO)[C@@H](O)[C@H](N)[C@H]1O [amikacin] | 8 to 16 (≈ 13.7 to 27.3 µM) | 64 (≈ 109 µM) | potency against 3 of 4 strains tested | 2 to 4 (≈ 3.42 to 6.83 µM) | 1 (≈ 1.71 µM) | 1 (≈ 1.71 µM) | 8 (≈ 13.7 µM) | 1 to 2 (≈ 1.71 to 3.42 µM) | – | – | – | – | MIC90 [2]: ≥ 64 µg/mL; MIC90 [4]: ≥ 64 µg/mL; Change from 24 hr. control [9, 16]: −2.73; Change from T = Rx controls [9, 16]: 0.43; Log CFU/thigh [9, 17]: 3.92 Log CFU/thigh; Change from 24 hr. control (P. aeruginosa 6294 MLP-3; [16]): −1.49; Change from T = Rx controls (P. aeruginosa 6294 MLP-3; [16]): 1.59; Log CFU/thigh (P. aeruginosa 6294 MLP-3; [17]): 5.77 Log CFU/thigh |
| NC[C@H]1O[C@H](O[C@H]2[C@H](O)[C@@H](O[C@H]3O[C@H](CO)[C@@H](O)[C@H](N)[C@H]3O)[C@H](N)C[C@@H]2N)[C@H](N)[C@@H](O)[C@@H]1O [kanamycin B] | – | – | limited to no activity | – | – | – | – | – | >64 | >64 | 64 (≈ 132 µM) | 16 (≈ 33.1 µM) | MIC ECWT [6]: 2 µg/mL (≈ 4.14 µM); MIC ABWT [7]: 0.5 to 1 µg/mL; MIC KPWT [8, 15]: 16 µg/mL (≈ 33.1 µM) |
| NCC[C@H](O)C(=O)N[C@@H]1C[C@H](N)[C@@H](O[C@H]2O[C@H](CN)[C@@H](O)[C@H](O)[C@H]2O)[C@@H](F)[C@H]1O[C@H]1O[C@H](CNC2CC2)[C@@H](O)[C@H](N)[C@H]1O [SXP1212-56″-16] | – | – | – | – | – | – | – | – | <0.25 to 4 | 32 (≈ 51.1 µM) | 2 to 8 | 1 (≈ 1.6 µM) | MIC KR1 [12]: 0.5-1; MIC KR3 [13]: 16; MIC KR2 [14]: 1; MIC KPWT ([8]; Klebsiella pneumonia KPWT, Table 5 (unit not given), in µg/mL): <0.25 |
| NC[C@@H]1CC[C@@H](N)[C@@H](O[C@H]2[C@H](O)[C@@H](O[C@H]3O[C@H](CO)[C@@H](O)[C@H](N)[C@H]3O)[C@H](N)C[C@@H]2N)O1 [dibekacin] | > 64 | > 64 | limited to no activity | 1 to 2 (≈ 2.21 to 4.43 µM) | 0.25 (≈ 0.554 µM) | 16 (≈ 35.4 µM) | 4 (≈ 8.86 µM) | 0.25 to 0.5 (≈ 0.554 to 1.11 µM) | – | – | – | – | MIC PAWT ([11]; listed as DIB): 0.25 to 0.5 µg/mL |
